Experimental data: the supplement of paper PMC10307832

Assays:
Assay in all cases: relative viability (nuclei count vs DMSO), 5 days (fraction); higher = more cells survive
[1] = compound: C/C(=N\NC(=S)N1CCC1)/C2=CC=CC=N2 + CC(=O)c1c(C)c2cnc(Nc3ccc(N4CCNCC4)cn3)nc2n(C2CCCC2)c1=O [Palbociclib] (partner 0.5 µM)
In short: (§1)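 Lung cancer cell lines were seeded in 1536-well plates and dosed by pin tool the next day, with either a single drug or a fixed anchor-drug dose combined with five library-drug doses (not always all listed) spaced in √10 steps. Five days later, one step fixed the cells and stained their nuclei (final 0.05% Triton X-100, 1% formaldehyde, 1 ug/ml Hoechst), and nuclei were counted on 4× images. Relative viability is the nuclei count in treated wells divided by the count in vehicle wells, and each value is the median of duplicate plates.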

[2] = compound: C/C(=N\NC(=S)N1CCC1)/C2=CC=CC=N2 + CCNC(=O)c1noc(-c2cc(C(C)C)c(O)cc2O)c1-c1ccc(CN2CCOCC2)cc1 [Luminespib] (partner 0.01 µM)
In short: as §1

[3] = compound: C/C(=N\NC(=S)N1CCC1)/C2=CC=CC=N2 + COc1cccc2cc(-c3nc([C@H]4CC[C@H](C(=O)O)CC4)n4ncnc(N)c34)[nH]c12 [OSI-027] (partner 0.5 µM)
In short: as §1

[4] = compound: C/C(=N\NC(=S)N1CCC1)/C2=CC=CC=N2 + CS(=O)(=O)N1CCN(Cc2cc3nc(-c4cccc5[nH]ncc45)nc(N4CCOCC4)c3s2)CC1 [Pictilisib] (partner 1 µM)
In short: as §1

Cell Line	relative viability ([1]; first compound 0.05 µM)	relative viability ([1]; first compound 0.1581 µM)	relative viability ([1]; first compound 0.5 µM)	relative viability ([1]; first compound 1.581 µM)	relative viability ([1]; first compound 5 µM)	relative viability ([2]; first compound 0.05 µM)	relative viability ([2]; first compound 0.1581 µM)	relative viability ([2]; first compound 0.5 µM)	relative viability ([2]; first compound 1.581 µM)	relative viability ([2]; first compound 5 µM)	relative viability ([3]; first compound 0.05 µM)	relative viability ([3]; first compound 0.1581 µM)	relative viability ([3]; first compound 0.5 µM)	relative viability ([3]; first compound 1.581 µM)	relative viability ([3]; first compound 5 µM)	relative viability ([4]; first compound 0.05 µM)	relative viability ([4]; first compound 0.1581 µM)	relative viability ([4]; first compound 0.5 µM)	relative viability ([4]; first compound 1.581 µM)	relative viability ([4]; first compound 5 µM)
LCLC-103H	0.335	0.464	0.309	0.289	0.287	0.174	0.204	0.233	0.182	0.158	0.178	0.22	0.217	0.2	0.19	0.269	0.254	0.266	0.234	0.265
LOU-NH91	0.486	0.526	0.496	0.388	0.389	0.257	0.293	0.274	0.185	0.264	0.412	0.476	0.447	0.388	0.396	0.367	0.428	0.439	0.374	0.356
NCI-H1650	0.17	0.119	0.138	0.138	0.163	0.182	0.185	0.2	0.168	0.174	0.158	0.216	0.17	0.152	0.184	0.17	0.214	0.186	0.165	0.193
NCI-H3122	0.0974	0.166	0.103	0.148	0.127	0.0803	0.063	0.0978	0.134	0.11	0.138	0.0988	0.132	0.134	0.129	0.15	0.129	0.167	0.23	0.187
PC-3 [JPC-3]	0.328	0.485	0.409	0.362	0.373	0.354	0.415	0.257	0.232	0.216	0.271	0.301	0.265	0.25	0.214	0.278	0.319	0.31	0.279	0.221
NCI-H1651	0.159	0.134	0.129	0.0856	0.0851	0.13	0.157	0.127	0.0971	0.138	0.152	0.165	0.13	0.0837	0.093	0.0849	0.0897	0.0884	0.0807	0.0572
NCI-H2087	0.104	0.0945	0.12	0.118	0.0998	0.116	0.0944	0.159	0.142	0.137	0.132	0.14	0.143	0.122	0.0904	0.302	0.219	0.258	0.205	0.153
